The values that follow are results of earlier work, collected in patent US20050032782A1, “Treatment of chronic pain associated with drug or radiation therapy” (Cypress Bioscience, Inc., priority 2003, published 2005).

For this data set, the target named is NMDA receptor. Particulars: reported by Shuto et al.; read-out: IC50 value, NMDA receptor antagonistic properties.

Take `CCN(CC)C(=O)C1(c2ccccc2)CC1CN` (stereo not shown) [milnacipran]: the IC50 (usually the midpoint of a concentration-inhibition curve) was approximately 6.3 µM.
